Legend:
TRPA1 (worm) = molecular target: T1, TRPA1 (worm) (Caenorhabditis elegans, UniProt Q18297); experiment: Calcium imaging of HEK293T cells (Rhod-3 AM), worm TRPA1; assay type: cell-based, C. elegans; details: HEK293 cells transfected with worm TRPA1 and GFP; 100 pM AITC
T1 construct: expressed in transfected cells; host or cells: HEK293T
T1 sequence (Q18297 1-1211): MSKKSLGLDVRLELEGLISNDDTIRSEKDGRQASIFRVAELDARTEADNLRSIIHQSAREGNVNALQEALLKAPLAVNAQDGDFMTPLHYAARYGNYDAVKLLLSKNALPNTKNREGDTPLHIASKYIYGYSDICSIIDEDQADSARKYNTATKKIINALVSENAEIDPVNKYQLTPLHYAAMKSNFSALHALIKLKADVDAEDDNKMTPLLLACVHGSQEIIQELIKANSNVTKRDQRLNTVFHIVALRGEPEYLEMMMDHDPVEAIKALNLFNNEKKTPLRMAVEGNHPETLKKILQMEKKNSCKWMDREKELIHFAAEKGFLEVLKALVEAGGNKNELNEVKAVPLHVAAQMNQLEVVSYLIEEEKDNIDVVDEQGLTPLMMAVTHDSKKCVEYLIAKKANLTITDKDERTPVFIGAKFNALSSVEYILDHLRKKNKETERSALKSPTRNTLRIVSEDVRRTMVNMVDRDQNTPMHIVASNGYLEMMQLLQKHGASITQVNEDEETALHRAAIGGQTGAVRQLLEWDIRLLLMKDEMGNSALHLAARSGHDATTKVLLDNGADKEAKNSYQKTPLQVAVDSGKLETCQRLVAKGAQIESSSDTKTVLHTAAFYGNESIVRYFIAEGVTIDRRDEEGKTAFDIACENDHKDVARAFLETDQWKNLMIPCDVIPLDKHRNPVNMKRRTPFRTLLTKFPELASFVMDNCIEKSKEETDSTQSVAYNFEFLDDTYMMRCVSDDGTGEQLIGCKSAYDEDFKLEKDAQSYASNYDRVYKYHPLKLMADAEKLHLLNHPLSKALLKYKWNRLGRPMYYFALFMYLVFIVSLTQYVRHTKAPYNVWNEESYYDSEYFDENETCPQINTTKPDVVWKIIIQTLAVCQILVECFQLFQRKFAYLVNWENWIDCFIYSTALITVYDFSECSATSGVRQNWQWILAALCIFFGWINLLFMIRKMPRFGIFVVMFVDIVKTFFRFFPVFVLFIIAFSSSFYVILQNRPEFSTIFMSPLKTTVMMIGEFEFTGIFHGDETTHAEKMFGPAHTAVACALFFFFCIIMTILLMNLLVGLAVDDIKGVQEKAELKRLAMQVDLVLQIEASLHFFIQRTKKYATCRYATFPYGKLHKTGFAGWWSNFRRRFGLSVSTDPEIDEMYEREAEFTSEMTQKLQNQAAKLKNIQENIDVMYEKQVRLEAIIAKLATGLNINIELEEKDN
Procedure: (§1) Appropriate HEK293T-derived cells were seeded on collagen-coated glass bottom culture dishes (MatTek Corporation). Cells were loaded with 10 pM of Rhod-3 AM (Life Technology) for 30 min at 37° C. After 30 min they were washed twice with standard Tyrode's solution (135 mM NaCl, 4 mM KCl, 10 mM glucose, 10 mM HEPES, 2 mM CaCl2, and 1 mM MgCl2 at pH=7.4) at room temperature. Calcium imaging was performed on an Olympus BX51WI Axiovert microscope under a 60× objective. Fluorescent images were documented upon sequential excitation with 555 nm followed by 484 nm with a Roper CoolSnap CCD camera. After establishing a baseline 555/484 ratio, methylglyoxal or other agonists were diluted with Tyrode's solution (100 pM or 1 mM final concentration) and were perfused into cells. Images were processed with the MetaFlour (Olympus) software.

TRPA1 (RAT) = molecular target: T2, TRPA1 (RAT) (Rattus norvegicus, UniProt Q6RI86); details: stated as known; cited from earlier work
T2 construct: expressed in transfected cells; host or cells: HEK293T
T2 sequence (Q6RI86 whole entry): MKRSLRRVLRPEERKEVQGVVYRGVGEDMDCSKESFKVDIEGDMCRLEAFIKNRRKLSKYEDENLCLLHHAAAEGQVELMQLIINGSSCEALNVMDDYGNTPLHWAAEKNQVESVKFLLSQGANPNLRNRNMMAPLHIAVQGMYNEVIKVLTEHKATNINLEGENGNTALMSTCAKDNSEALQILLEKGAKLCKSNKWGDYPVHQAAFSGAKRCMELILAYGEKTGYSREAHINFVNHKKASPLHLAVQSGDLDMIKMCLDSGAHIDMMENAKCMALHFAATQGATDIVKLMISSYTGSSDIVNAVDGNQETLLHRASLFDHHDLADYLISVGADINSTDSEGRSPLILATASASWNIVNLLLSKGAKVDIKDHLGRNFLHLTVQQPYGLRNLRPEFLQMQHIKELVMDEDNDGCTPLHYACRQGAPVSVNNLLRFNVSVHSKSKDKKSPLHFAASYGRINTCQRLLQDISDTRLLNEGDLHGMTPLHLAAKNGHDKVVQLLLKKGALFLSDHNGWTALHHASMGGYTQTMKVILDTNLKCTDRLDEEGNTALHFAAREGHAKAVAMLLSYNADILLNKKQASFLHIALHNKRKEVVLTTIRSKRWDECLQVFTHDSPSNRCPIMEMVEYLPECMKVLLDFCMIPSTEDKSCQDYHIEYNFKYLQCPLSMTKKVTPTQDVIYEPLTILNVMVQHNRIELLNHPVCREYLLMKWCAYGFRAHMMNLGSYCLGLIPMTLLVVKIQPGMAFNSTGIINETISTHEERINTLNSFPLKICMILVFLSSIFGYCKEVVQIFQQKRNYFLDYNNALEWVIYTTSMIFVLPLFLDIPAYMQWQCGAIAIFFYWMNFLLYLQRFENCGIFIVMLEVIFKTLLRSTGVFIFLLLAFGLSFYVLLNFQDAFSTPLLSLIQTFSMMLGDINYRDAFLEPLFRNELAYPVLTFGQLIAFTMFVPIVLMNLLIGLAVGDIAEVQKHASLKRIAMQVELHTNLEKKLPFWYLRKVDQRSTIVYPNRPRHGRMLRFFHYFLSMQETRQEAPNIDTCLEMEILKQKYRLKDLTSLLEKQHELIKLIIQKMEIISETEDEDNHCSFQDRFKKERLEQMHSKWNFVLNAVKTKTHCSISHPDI

TRPM8 (mouse) = molecular target: T3, TRPM8 (mouse) (Mus musculus, UniProt Q8R4D5); experiment: Calcium imaging of HEK293T cells (Rhod-3 AM), mouse TRPM8; assay type: cell-based; details: HEK293T transfected with mouse TRPM8 and GFP; 100 pM MGO then 100 pM menthol
T3 construct: expressed in transfected cells; host or cells: HEK293T
T3 sequence (Q8R4D5 whole entry): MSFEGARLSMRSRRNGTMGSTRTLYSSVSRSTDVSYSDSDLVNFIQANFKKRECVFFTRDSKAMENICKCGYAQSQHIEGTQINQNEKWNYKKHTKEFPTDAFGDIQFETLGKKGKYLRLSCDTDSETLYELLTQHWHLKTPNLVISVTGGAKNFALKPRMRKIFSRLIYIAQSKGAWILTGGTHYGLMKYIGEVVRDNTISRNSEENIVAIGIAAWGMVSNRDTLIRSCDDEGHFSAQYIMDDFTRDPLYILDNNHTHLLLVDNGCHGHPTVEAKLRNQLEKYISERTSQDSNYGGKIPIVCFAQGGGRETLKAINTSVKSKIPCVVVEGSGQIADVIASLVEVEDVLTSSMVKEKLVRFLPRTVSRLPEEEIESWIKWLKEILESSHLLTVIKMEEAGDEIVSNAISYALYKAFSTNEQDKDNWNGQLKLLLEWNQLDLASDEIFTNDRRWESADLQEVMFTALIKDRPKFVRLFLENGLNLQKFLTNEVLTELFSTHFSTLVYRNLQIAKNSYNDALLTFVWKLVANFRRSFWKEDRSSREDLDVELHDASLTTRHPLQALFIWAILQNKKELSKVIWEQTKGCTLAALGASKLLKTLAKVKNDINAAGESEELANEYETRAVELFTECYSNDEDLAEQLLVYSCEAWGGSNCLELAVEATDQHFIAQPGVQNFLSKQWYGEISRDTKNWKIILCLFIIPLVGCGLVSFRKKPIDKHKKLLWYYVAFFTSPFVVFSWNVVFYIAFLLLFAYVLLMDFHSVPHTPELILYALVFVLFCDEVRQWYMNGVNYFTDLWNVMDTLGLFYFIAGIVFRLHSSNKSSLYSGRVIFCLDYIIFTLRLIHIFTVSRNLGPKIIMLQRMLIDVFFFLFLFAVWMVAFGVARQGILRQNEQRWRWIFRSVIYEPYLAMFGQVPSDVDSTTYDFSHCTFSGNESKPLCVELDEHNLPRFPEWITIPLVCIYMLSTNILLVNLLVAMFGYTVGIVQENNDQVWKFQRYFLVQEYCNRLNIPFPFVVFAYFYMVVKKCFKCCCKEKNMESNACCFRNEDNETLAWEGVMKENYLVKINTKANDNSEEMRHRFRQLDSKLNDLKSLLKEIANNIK
Procedure: as §1

native HEK293T cells = experiment: Calcium imaging of native HEK293T cells (GFP only); assay type: cell-based
Procedure: as §1

glod-4 animals = experiment: LC-MS/MS estimation of a-DC levels (MGO, GO) in worms; assay type: in vivo, Caenorhabditis elegans; details: glod-4, PA
Procedure: Worms were cultured on NGM agar plates as explained before for lifespan experiments with some modifications: ˜100 animals/60 mm plates were used for each experimental replicate and animals were harvested at day 4 of adulthood with 20 pL M9 buffer in 1.5 mL eppendorf tubes. Worm suspensions were flash-frozen over liquid nitrogen and subsequently homogenized ultrasonically using a Fisher Scientific's 550 Sonic Dismembrator with 80 pL of sodium formate buffer (pH=3) containing 75 pM of 2,3-hexanedione (internal standard, IS). Two 20 s pulses at amplitude setting 4 of the instrument (on ice) were sufficient to completely homogenize worm bodies. To each homogenate tube 20 pL of 100 mg/mL o-phenelynediamine (OPD) solution in sodium formate buffer (pH=3) were added, and the mixture was allowed to react in dark at room temperature for ˜22 h. The long reaction time and the pH are critical parameters in this protocol: first to ensure complete derivatization of a-DCs bound reversibly to protein/glutathione —SHs; and second to prevent in vitro a-DC generation from glycolytic intermediates (DHAP, GAP, etc.) or due to DNA breakdown (Chaplen et al. (1998) Proc. Natl. Acad. Sci. USA, 95: 5533-5538). At the end of the stipulated reaction window, 12 pL of 5 M perchloric acid was added to each tube and incubated on ice for 30 min to ensure complete protein precipitation. Subsequently, the tubes were centrifuged at 10,000 rpm for 10 min, and the supernatant collected and neutralized with 30 pL 4 M NH4OH solution.
Optimization of analyte-specific MRM transitions, such as determination of suitable precursor and product ions and optimal MS parameters for each transition (Q1, precursor→Q3, product) were achieved by isocratic flow injection of the 10 pM solution (final) for each standard- or IS-OPD derivatives. The most intense (Q1→Q3) transition was used as quantifier, whereas the next best transition was used as qualifier for each compound (Table 4). For LC separation, a solvent gradient of 0.1% acetic acid in water (aqueous) - methanol (organic) was used with 0.4 mL/min flow rate, starting with an […] content of 3% for 0.7 min, which was increased to 100% over 6 min and held at 100% for 1.5 min. The LC column was subsequently reconstituted to its initial condition (methanol content of 3%) over the next 0.5 min and re-equilibrated for 3 min.
Derivatized metabolome extracts, as well as synthetic a-DCs were analyzed by scheduled LC-MRM in positive ion mode. To develop the scheduled LC-MRM method, MS/MS data was collected for all transitions across the length of each LC run for a mixture of synthetic GO-, MGO-, 3DG-, and 2,3-hexanedione (IS)-OPD derivatives (1 pL injection of 1 pM final concentration). Source conditions were as follows: curtain gas (CUR) 20, nebulizer gas (GS1) 60, auxiliary gas (GS2) 50, ionspray voltage (IS) 4500 V, and source temperature (TEM) 450° C. This step was undertaken to ascertain the LC retention times (RT) for the OPD derivatives. Several such sets were acquired to compute analyte-specific variability in RTs. Next, the MS was switched to operate in scheduled MRM mode, whereby the mass spectrometer acquired data for specific MRM transitions ±45 s around the computed RT for the analyte (Table 4). Relative quantification of GO, MGO, and 3DG were based on integration of corresponding OPD derivative-specific quantifier peaks obtained from scheduled LC-MRM runs (peak areas) and adjusted to the number of animals. To account for OPD derivatization efficiencies in individual tubes, sample-to-sample variability in MS response, and differential sample dilutions (both for synthetic a-DCs as well as a-DCs in worm homogenates), the peak areas were normalized to the quantifier peak area for IS-OPD for each sample.

SKN-1/Nrf2 = experiment: SKN-1 activation assay (GFP reporters for SKN-1, gst-4, gcs-1; qPCR); assay type: in vivo, Caenorhabditis elegans; details: gst-4p::gfp animals on EV or glod-4 RNAi; PA, LA, or UMP (20 pM)
Procedure: Adult animals were examined for SKN-1/Nrf2 activation using GFP reporters for both SKN-1 and SKN-1 target genes: gst-4 and gcs-1. For exogenous MGO and drug assays, age-synchronized GFP reporter strains were subject to control and treatment conditions for a period of 4-6 hours before microscopy. For RNAi-induced activation studies, GFP reporter strains were fed on HT1115 bacteria expressing empty vector pL4440 or RNAi gene from L1 stage. Synchronized day 1 adult animals were then subjected to microscopic examination. Activation of SKN-1 using SKN-1 fusion reporter was determined as described earlier (An et al. (2003) Genes & Dev. 17: 1882-1893; Onken and Driscoll (2010) PloS One, 5: e8758). Scoring for downstream SKN-1 targets carrying GFP reporter for gcs-1 promoter was performed based on a previous study (Wang et al. (2010) PLoS Genetics, doi. org/10.1371/journal.pgen.1001048) and categorized as follows: ‘high’ for strong GFP signal throughout the intestine, ‘medium’ for GFP signal in the anterior or posterior section of the intestine and ‘low’ for weak or no signal. For animals with gst-4 promoters carrying GFP reporters number of GST-4 positive foci was counted under different conditions as described previously (Fensgardet al. (2010) Aging, 2: 133-159). Quantification of acquired images was done using the Image J™ software (//imagej.nih.gov/ij/).
Total RNA was extracted from nearly 100 age-synchronized adult animals picked and collected in 20 pl of M9 buffer using TRIzol reagent (Life Technologies, CA). Subsequently, 1 pg total RNA was used as template for cDNA synthesis. cDNA was synthesized using the ISCRIPT™ cDNA synthesis kit (Bio-Rad, CA) following manufacturer's protocol. qRT-PCR was carried out using the SensiFAST SYBR No-ROX kit (Bioline, MA) in a LightCycler 480 Real-Time PCR system (Roche Diagnostics Corp., IN). Quantification was performed using the comparative AACt method and normalization for internal reference was done using actin gene act-1.

C. elegans [1] = experiment: Lifespan assay (survival curves); assay type: in vivo, Caenorhabditis elegans; details: glod-4 mutant animals; PA, LA, or UMP (20 pM) vs EtOH control
Procedure: Life span assays were performed in Thermo Scientific Precision incubators at 20° C. After alkaline hypochlorite treatment, synchronized L1 animals were either placed onto NGM plates seeded with 5× concentrated E. coli OP50-1 (cultured on Lysogeny Broth/LB overnight) or on RNAi plates supplemented with 20×HT1115 RNAi bacteria. Post-L4 stage of development, all lifespan assays were performed using FUdR (5-fluoro-2 deoxyuridine) plates to inhibit development and growth of progeny. Every two days, animals were transferred on to new 60 mm NGM or RNAi plates freshly seeded with OP50-1 or HT1115 bacteria (with or without drug), respectively. 90-120 animals were considered for each lifespan experiment. Animal viability was assessed visually or with gentle prodding on the head. Animals were censored in the event of internal hatching of the larvae, body rupture, or crawling of larvae from the plates.

C. elegans [2] = experiment: Touch assay (touch index, gentle touch); details: glod-4, young adult stage; 66.7 pM in DMSO
Procedure: For feeding RNAi bacteria, synchronized L1 larvae were transferred to NGM plates containing 1 mM of isopropyl P-D-1- thiogalactopyranoside/IPTG (referred to as RNAi plates) seeded with 20× concentrated HT1115 bacteria (cultured overnight at 20° C. at 220 rpm), carrying desired plasmid for RNAi of a specific gene or bacteria carrying empty vector pL4440 as control and allowed to grow on plates for 48 h. For drug assays, synchronized L4 larvae were transferred to either 60 mm NGM plates (with or without IPTG), freshly seeded with 5×E. coli OP50-1 or 20× HT1115 RNAi bacteria. Before seeding, the desired drug (or vehicle control) was mixed with the bacteria. Final drug concentrations were calculated considering the total volume of media and bacteria seeded on the NGM plates.
Briefly, each animal was touched alternately in the head region and in the tail with an eyelash. Typically, an omega turn or diversion in head direction resulting from anterior touch was counted as a positive response. Posterior touch response (not counted towards positive response) functioned towards resetting of the response to anterior touch. Touch index (TI) scores were generated by dividing the total number of positive responses over the […] per animal.
Synchronized glod-4 L1 animals were cultured on NGM agar plates seeded with E. coli OP50-1 until L4. […] Post-transfer into wells, animals were fed OP50-1 bacteria ad libitum while incubating at 20° C. on a rocker for 12 h. DMSO was used as control. Post-incubation with drug or DMSO, animals were transferred from wells onto NGM agar plates seeded with OP50-1 bacteria. Touch assay was performed on individual animal and touch index (TI) was calculated for each compound from the library as mentioned earlier.

For `C=CCN=C=S` [AITC, allyl isothiocyanate], the “Activation of worm TRPA1 channel (Ca2+ flux, Rhod-3 AM)” value (TRPA1 (worm)) is given as “failed to activate” and the “Activation of mammalian TRPA1” value (TRPA1 (RAT)) is given as “known to activate”.

In the case of `CC1CCC(C(C)C)C(O)C1` (stereo not drawn) [menthol], the “Ca2+ flux through the TRPM8 channel (Rhod-3 AM)” value (TRPM8 (mouse)) was “triggers a Ca^+2 flux” and the “Ca2+ flux in native HEK293T cells (Rhod-3 AM)” value (native HEK293T cells) was “neither compounds resulted in Ca^+2 flux”.

With `O=c1ccn([C@@H]2O[C@H](COP(=O)(O)O)[C@@H](O)[C@H]2O)c(=O)[nH]1` [UMP, Uridine monophosphate] the “Levels of GO” value (glod-4 animals; LA, or UMP (20 pM each) vs EtOH control) was “does not ameliorate”, the “Levels of MGO” value (glod-4 animals; LA, or UMP (20 pM) vs EtOH control) was “does not ameliorate” and the “SKN-1 activation (GFP foci in gst-4p::gfp)” value (SKN-1/Nrf2) was “nor does it activate SKN-1”. For the same molecule, the “Lifespan / early mortality (survival curves)” value (C. elegans [1]) was “does not ameliorate” and the “Touch sensitivity (touch index) in drug screen of TimTec NPL640” value (C. elegans [2]) was “reduced touch sensitivity”.

— patent US20180015051A1, “MODULATORS OF ALPHA-DICARBONYL DETOXIFICATION AND THEIR USE FOR THE TREATMENT OF DIABETIC PATHOLOGIES” (Buck Institute for Research on Aging, priority 2016, published 2018)
